The record followed here is ChEMBL document CHEMBL3507680, “University of Dundee, Gates Library screen for HepG2 cell viability”.

This series in a line: Human HepG2 cell viability assay in 384 well format. Format: toxicity, cell-based. The following applies: HepG2 cells, read-out: Inhibition. Further details: dose 125 nL, time 70.5 hour; cytotoxicity at 70.5 h: concentration not given beside the values.
With `CS(=O)(=O)N1CCO[C@@H]2CN(C(=O)c3cccnc3)C[C@@H]2C1`, the cytotoxicity at 70.5 h is -2.16%.

Consider `CN(C(=O)CSc1ncc[nH]1)c1ccccc1`, for which the cytotoxicity at 70.5 h was determined as 31.6%.

`Cc1nccc(CNC(=O)N2CCN(Cc3ccccc3)C[C@H]2C)n1`: the cytotoxicity at 70.5 h was -8.68%.

Take `Cc1cc(-c2nc(C3(NC(=O)OC(C)(C)C)CCC3)no2)on1`: the cytotoxicity at 70.5 h was -5.47%.

For the compound `COC1CCN(CCNc2ncc(Br)cc2C)CC1`, the cytotoxicity at 70.5 h is -1.86%.

On to `FC(F)Oc1ccccc1CNCc1cc(Br)c2c(c1)OCO2`, for which the cytotoxicity at 70.5 h was -7.29%.

As for `CC(C)NC1CCc2c(ccc(=O)n2CCN2CCCC2=O)C1` (stereo not given), the cytotoxicity at 70.5 h is -4.58%.

Turning to `Nc1cc(N2CCOCC(Cc3ccc4[nH]ccc4c3)C2)ncn1` (stereo not given), the cytotoxicity at 70.5 h was -0.988%.

As for `O=C(N1CCOCC1)N1CCc2ncnc(NC3CC3)c2CC1`, the cytotoxicity at 70.5 h amounted to 21%.

For `CC(=O)Nc1ccc(OCc2noc(C(=O)N3CCCCCC3)n2)cc1`, the cytotoxicity at 70.5 h is -21.4%.

`Cc1cc2ncn(C(=O)N3CCCC3)c2cc1C`: the cytotoxicity at 70.5 h was -2.26%.

On to `COc1cccc(CN2CC[C@H](NC(C)=O)[C@@H](O)CC2)c1F`, for which the cytotoxicity at 70.5 h is -1.47%.

Take `CC[C@@]1(O)CCN(C(=O)c2ccc(SC)cc2)C[C@H]1O`: the cytotoxicity at 70.5 h stood at 0.602%.

Take `CCNC(=O)N1CCC(NC(=O)NCCc2cccc(C)c2)C1` (stereo not given): the cytotoxicity at 70.5 h turned out to be 4.49%.

For the compound `O[C@H]1CC[C@@H](Cc2cc(-c3ccccc3)on2)O[C@@H]1CNCC1CC1`, the cytotoxicity at 70.5 h is -5.25%.

Take `COCCN(CCN(C)C)C(=O)NC1CC1`: the cytotoxicity at 70.5 h was -2.74%.

As to `C[S+]([O-])CCNC(=O)N1CCSC(C)(C)C1` (stereo not given), the cytotoxicity at 70.5 h is -1.1%.

Consider `OCc1ccc(OCC(F)(F)F)cc1`, for which the cytotoxicity at 70.5 h is -8.76%.

Consider `Cn1ccc(C(=O)N2C[C@H]3CCC[C@@]3(COCc3cccnc3)C2)n1`, for which the cytotoxicity at 70.5 h was -0.791%.

With `Cc1ccc2c(c1)OCCCC2NCc1nccn1CC(C)C` (stereo not given), the cytotoxicity at 70.5 h was -7.28%.

`CCCN1CCC(NC(=O)NCCc2nc(CC)c(C)s2)CC1`: the cytotoxicity at 70.5 h was -1.97%.

`CC(O)CN1CCc2onc(C(c3ccccc3)c3ccccc3)c2C1` (stereo not given): the cytotoxicity at 70.5 h was -10%.

In the case of `Cc1ccc(-c2nc(CC(=O)NCC3CCOC3)cs2)o1` (stereo not given), the cytotoxicity at 70.5 h is -2.56%.

As for `CCCn1cc(C(=O)NCCCC(N)=O)c2ccccc21`, the cytotoxicity at 70.5 h is -2.51%.

As for `Cc1c(C2CC(=O)Nc3c2cnn3C(C)C)cnn1C` (stereo not given), the cytotoxicity at 70.5 h is -10.4%.

Turning to `Cc1nc(CN2CCCC(N(C)CCOCC(F)(F)F)C2)no1` (stereo not given), the cytotoxicity at 70.5 h was -6.75%.

As to `CCCN1CCC(CC(=O)N2CCC(C(O)c3nccn3C)CC2)CC1` (stereo not given), the cytotoxicity at 70.5 h was -11.6%.

As to `CNC(=O)N1CCN(C(=O)C(C)C)CC2(CC(=O)N(C)C2)C1` (stereo not given), the cytotoxicity at 70.5 h was -5.77%.

As for `CC(C)(C)c1ccc(OCC(N)=O)c(CN2C[C@H]3C[C@H](O)C[C@H]3C2)c1`, the cytotoxicity at 70.5 h is -7.47%.

For the compound `CN(Cc1ccco1)C(=O)NC(Cn1ccnc1)C(C)(C)C` (stereo not given), the cytotoxicity at 70.5 h is -5.15%.

As to `CN(C)C(=O)CCCS(=O)(=O)Cc1cc(Cl)c2c(c1)OCO2`, the cytotoxicity at 70.5 h was -2.84%.

As for `Cc1cc(N(C)C)nc(C2COCCN2Cc2nccn2C)n1` (stereo not given), the cytotoxicity at 70.5 h was -6.31%.

`O=C(CCc1ccc2c(c1)OCO2)Nc1cccnc1-n1cncn1`: the cytotoxicity at 70.5 h is -2.15%.

For `OC(COCc1cccs1)CN1CCC(c2ccn[nH]2)CC1` (stereo not given), the cytotoxicity at 70.5 h was -17.6%.

For the compound `CSc1ncccc1C(=O)N1CCCC1c1ccc(C(=O)N(C)C)s1` (stereo not given), the cytotoxicity at 70.5 h was -15.4%.

Consider `COc1ccc(S(=O)(=O)NC(=O)COc2ccc3c(c2)CCC3)cc1`, for which the cytotoxicity at 70.5 h was found to be 17.6%.

On to `COCCCNC(=O)CN1CCOC(c2ccccc2)C1` (stereo not given), for which the cytotoxicity at 70.5 h was 15.8%.

For `NCC1(c2cccc(C(F)(F)F)c2)CCC1`, the cytotoxicity at 70.5 h is -2.75%.

Regarding `Cc1ncc(CN2CCC(c3nc(O)cc(-c4ccsc4)n3)CC2)cn1`, the cytotoxicity at 70.5 h was -3.5%.

For `Cc1nc(-c2ccccc2)sc1CNC(=O)c1ccc(=O)n(C)c1`, the cytotoxicity at 70.5 h was -3.22%.
